The values below come from patent US8846656B2, “Tetrahydropyrido-pyridine and tetrahydropyrido-pyrimidine compounds and use thereof as C5a receptor modulators” (Novartis AG, priority 2011, dated 2014).

The target in experiment [1] is human C5aR (Homo sapiens (Human), UniProt P21730). Kind of experiment: FLIPR assay: inhibition of C5a-mediated calcium mobilization. It is filed as cell-based. As to conditions: stable cell line over expressing human C5aR & Gα15, human C5a at EC50 (0.1-0.25 nM). An outline of the steps: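 Compounds were added for 30 minutes at room temperature (1% DMSO) ahead of C5a stimulation. Before this, cells were dye-loaded for 1 h at 37° C: calcium 5 with 2.5 mM probenecid in HBSS, 20 mM HEPES, 0.1% BSA. Cells co-express human C5aR and Gα15; read-out is FLIPR Tetra calcium flux.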
Chain of human C5aR (P21730 whole entry): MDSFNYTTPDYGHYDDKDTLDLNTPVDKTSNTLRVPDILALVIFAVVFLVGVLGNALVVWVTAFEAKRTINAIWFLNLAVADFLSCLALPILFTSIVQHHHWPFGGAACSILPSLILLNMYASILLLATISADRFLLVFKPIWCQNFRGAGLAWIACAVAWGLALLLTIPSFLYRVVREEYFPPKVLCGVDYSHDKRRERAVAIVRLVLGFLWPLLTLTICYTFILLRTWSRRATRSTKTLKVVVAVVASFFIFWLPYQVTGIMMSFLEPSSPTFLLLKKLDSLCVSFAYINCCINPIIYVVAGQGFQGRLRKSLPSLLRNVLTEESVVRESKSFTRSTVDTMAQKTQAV
A general note: Calcium flux is commonly read through the fluorescence of an indicator in the cells.

Experiment [2] concerns CD11b. Kind of experiment: Human whole blood CD11b up-regulation assay. It is filed as cell-based. As to conditions: Homo sapiens, 2 nM human C5a, CD15+ granulocytes, read-out: hCD11b IC50. An outline of the steps:
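Flow cytometric read-out: CD11b median fluorescence intensity of CD15+ granulocytes, 10,000 events. Stimulus was 2 nM human C5a for 15 min at room temperature, following 10 min compound exposure in 1% DMSO in fresh sodium-heparin whole blood; staining done on ice and erythrocytes lysed.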

For the compound `Cc1ccc2[nH]nc(C)c2c1-c1nc2c(c(N3C[C@@H](O)[C@@H]3C)n1)CN(c1c(Cl)c(C3CC3)nn1C)CC2` (racemic) [Example 69-H, (trans)-1-(6-(4-chloro-3-cyclopropyl-1-methyl-1H-pyrazol-5-yl)-2-(3,5-dimethyl-1H-indazol-4-yl)-5,6,7,8-tetrahydropyrido[4,3-d]pyrimidin-4-yl)-2-methylazetidin-3-ol], the IC50 (usually the concentration that inhibits the measured activity by half) amounted to 4 nM in experiment [1] and 196 nM in experiment [2].
For the compound `CO[C@@H]1CCN(c2nc(-c3c(C)cccc3C#N)nc3c2CN(c2cc(C(C)C)ccc2C)CC3)C[C@H]1C` [Example 19-AK, 2-(6-(5-isopropyl-2-methylphenyl)-4-((3R,4R)-4-methoxy-3-methylpiperidin-1-yl)-5,6,7,8-tetrahyropyrido[4,3-d]pyrimidin-2-yl)-3-methylbenzonitrile], the IC50 in experiment [1] amounted to 31 nM; in experiment [2] it was 30 nM.
For the compound `CO[C@@H]1CCN(c2nc(-c3c(C)ccc4[nH]nc(C)c34)nc3c2CN(c2cc(C4CC4)nn2C)CC3)[C@H](C)C1` [Example 23-H, 6-(3-cyclopropyl-1-methyl-1H-pyrazol-5-yl)-2-(3,5-dimethyl-1H-indazol-4-yl)-4-((2R,4R)-4-methoxy-2-methylpiperidin-1-yl)-5,6,7,8-tetrahydropyrido[4,3-d]pyrimidine], the IC50 in experiment [1] is 1 nM; in experiment [2], 24 nM.
Consider `CO[C@@H]1CCN(c2nc(-c3c(C)ccc4[nH]nc(C)c34)nc3c2CN(c2cc(C(C)C)ccc2C)CC3)CC1(C)C` [Example 21-AI, (R)-2-(3,5-dimethyl-1H-indazol-4-yl)-6-(5-isopropyl-2-methylphenyl)-4-(4-methoxy-3,3-dimethylpiperidin-1-yl)-5,6,7,8-tetrahydropyrido[4,3-d]pyrimidine], for which the IC50 was determined as 1 nM in experiment [1] and 8 nM in experiment [2].
Consider `Cc1ccc(C(C)C)cc1N1CCc2nc(-c3cccc4[nH]cc(C)c34)nc(N3CC[C@H](O)[C@H](C)C3)c2C1` (racemic) [Example 17-AN, racemic-1-(6-(5-isopropyl-2-methylphenyl)-2-(3-methyl-1H-indol-4-yl)-5,6,7,8-tetrahydropyrido[4,3-d]pyrimidin-4-yl)-3-methylpiperidin-4-ol], for which the IC50 in experiment [1] was 31 nM; in experiment [2], 423 nM.
Turning to `Cc1ccc(C(C)C)cc1N1CCc2nc(-c3c(C)ccc4[nH]nc(C)c34)nc(N3CCCC[C@H]3C)c2C1` [Example 21-AM, (R)-2-(3,5-dimethyl-1H-indazol-4-yl)-6-(5-isopropyl-2-methylphenyl)-4-(2-methylpiperidin-1-yl)-5,6,7,8-tetrahydropyrido[4,3-d]pyrimidine], the figures for the IC50 in experiment [1] and in experiment [2] were 1 nM and 7 nM, respectively.
For the compound `CO[C@@H]1CCN(c2nc(-c3c(C)ccc4[nH]nc(C)c34)nc3c2CN(c2c(F)c(C(F)F)nn2C)CC3)CC1(C)C` [Example 56-F, (R)-6-(3-(difluoromethyl)-4-fluoro-1-methyl-1H-pyrazol-5-yl)-2-(3,5-dimethyl-1H-indazol-4-yl)-4-(4-methoxy-3,3-dimethylpiperidin-1-yl)-5,6,7,8-tetrahydropyrido[4,3-d]pyrimidine], the IC50 in experiment [1] is 1 nM; in experiment [2], 11 nM.
As to `CO[C@@H]1CCN(c2nc(-c3c(C)cc(C)cc3C)nc3c2CN(c2cc(C(C)C)ccc2C)CC3)CC1(C)C` [Example 21-AE, (R)-6-(5-isopropyl-2-methylphenyl)-2-mesityl-4-(4-methoxy-3,3-dimethylpiperidin-1-yl)-5,6,7,8-tetrahydropyrido[4,3-d]pyrimidine], the IC50 in experiment [1] was 9 nM; in experiment [2] it was 93 nM.
Consider `CO[C@H]1CCN(c2nc(-c3c(C)ccc4[nH]nc(Cl)c34)nc3c2CN(c2cc(C(C)C)ccc2C)CC3)CC1(C)C` [Example 32-B, (S)-2-(3-Chloro-5-methyl-1H-indazol-4-yl)-6-(5-isopropyl-2-methylphenyl)-4-(4-methoxy-3,3-dimethylpiperidin-1-yl)-5,6,7,8-tetrahydropyrido[4,3-d]pyrimidine], for which the values for the IC50 in experiment [1] and in experiment [2] were 2 nM and 24 nM, respectively.
As to `CCn1nc(C2CC2)c(F)c1N1CCc2nc(-c3c(C)ccc4[nH]nc(C)c34)nc(N3CC[C@@H](OC)C(C)(C)C3)c2C1` [Example 71-B, (R)-6-(3-Cyclopropyl-1-ethyl-4-fluoro-1H-pyrazol-5-yl)-2-(3,5-dimethyl-1H-indazol-4-yl)-4-(4-methoxy-3,3-dimethylpiperidin-1-yl)-5,6,7,8-tetrahydropyrido[4,3-d]pyrimidine], the results for the IC50 in experiment [1] and in experiment [2] were 2 nM and 10 nM, respectively.
Consider `Cc1ccc(F)cc1N1CCc2nc(-c3cccc4[nH]cc(C)c34)nc(N3CCN(CC(N)=O)[C@H](C)C3)c2C1` [Example 24-E, (R)-2-(4-(6-(5-fluoro-2-methylphenyl)-2-(3-methyl-1H-indol-4-yl)-5,6,7,8-tetrahydropyrido[4,3-d]pyrimidin-4-yl)-2-methylpiperazin-1-yl)acetamide], for which the half-inhibitory concentration (IC50) in experiment [1] worked out at 75 nM; in experiment [2], 385 nM.
For the compound `CO[C@@H]1CCN(c2nc(-c3cccc4[nH]cc(C)c34)nc3c2CN(c2cc(Cl)ccc2C)CC3)CC1(C)C` [Example 17-BK, (R)-6-(5-chloro-2-methylphenyl)-4-(4-methoxy-3,3-dimethylpiperidin-1-yl)-2-(3-methyl-1H-indol-4-yl)-5,6,7,8-tetrahydropyrido[4,3-d]pyrimidine], the values for the IC50 in experiment [1] and in experiment [2] were 163 nM and 40 nM, respectively.
In the case of `COC1CCN(c2nc(-c3c(C)cccc3C)nc3c2CN([C@@H](C)c2ccccc2)CC3)CC1(C)C` (mixture of isomers) [Example 33-C, (±)-2-(2,6-Dimethylphenyl)-4-(4-methoxy-3,3-dimethylpiperidin-1-yl)-6-((S)-1-phenylethyl)-5,6,7,8-tetrahydropyrido[4,3-d]pyrimidine], the IC50 in experiment [1] came out at 79 nM; in experiment [2], 238 nM.
As for `CO[C@@H]1CCN(c2nc(-c3c(C)cncc3C)nc3c2CN(c2cc(C(C)C)ccc2C)CC3)CC1(C)C` [Example 21-M, (R)-2-(3,5-dimethylpyridin-4-yl)-6-(5-isopropyl-2-methylphenyl)-4-(4-methoxy-3,3-dimethylpiperidin-1-yl)-5,6,7,8-tetrahydropyrido[4,3-d]pyrimidine], the results for the IC50 in experiment [1] and in experiment [2] were 56 nM and 181 nM, respectively.
On the same counts, the results for `CO[C@@H]1CCN(c2nc(-c3c(C)ccnc3C)nc3c2CN(c2cc(C(C)C)ccc2C)CC3)[C@H](C)C1` [Example 21-S, 2-(2,4-dimethylpyridin-3-yl)-6-(5-isopropyl-2-methylphenyl)-4-((2R,4R)-4-methoxy-2-methylpiperidin-1-yl)-5,6,7,8-tetrahydropyrido[4,3-d]pyrimidine] are 30 nM and 180 nM.
Regarding `CO[C@@H]1CCN(c2nc(-c3c(C)ccc4[nH]nc(C)c34)nc3c2CN(c2cc(Cl)ccc2C)CC3)[C@H](C)C1` [Example 21-AG, 6-(5-chloro-2-methylphenyl)-2-(3,5-dimethyl-1H-indazol-4-yl)-4-((2R,4R)-4-methoxy-2-methylpiperidin-1-yl)-5,6,7,8-tetrahydropyrido[4,3-d]pyrimidine], the values for the IC50 in experiment [1] and in experiment [2] were 1 nM and 22 nM, respectively.
